Results published in US20240148821A1, “PHARMACEUTICAL USE OF CYCLIC PEPTIDE COMPOUND” (CHUGAI SEIYAKU KABUSHIKI KAISHA, priority 2021, published 2024).
Numbered stars: 1 amine (or outer) side, 2 acyl side, 3 side chain; on linkers, the order of the positions; unused ones are H or OH. Bridge positions count the residues as written; N and C are the ends. Square brackets hold non-standard residues; d marks the D form. Peptide text beside a SMILES is read from it. * marks the point of attachment. hPhe(3-Cl-4-CF3) = N[C@@H](CCc1ccc(C(F)(F)F)c(Cl)c1)C(=O)O; hPhe(3-F,4-CF3) = N[C@@H](CCc1ccc(C(F)(F)F)c(F)c1)C(=O)O; NMePhe(4-CF3) = CN[C@@H](Cc1ccc(C(F)(F)F)cc1)C(=O)O; NMePhe(4-CN) = CN[C@@H](Cc1ccc(C#N)cc1)C(=O)O; 3Oxa8azabicyclo(3.2.1)octane = C1CC2COCC1N2*; NMeAbu(4,4,4-F3) = CN[C@@H](CC(F)(F)F)C(=O)O; NMePhe(4-Me) = CN[C@@H](Cc1ccc(C)cc1)C(=O)O; NMePhe(2-Me) = CN[C@@H](Cc1ccccc1C)C(=O)O; NMedβ3hAla = C[C@H](CC(=O)[*:2])N(C)[*:1]; NMeGly(cPent) = CN[C@H](C(=O)O)C1CCCC1; Phe(3-I) = N[C@@H](Cc1cccc(I)c1)C(=O)O; NMeCha = CN[C@@H](CC1CCCCC1)C(=O)O; Hyp = O=C(O)[C@@H]1C[C@@H](O)CN1; NMeChg = CN[C@H](C(=O)O)C1CCCCC1; NMeF = CN[C@@H](Cc1ccccc1)C(=O)O; NMeI = CC[C@H](C)[C@H](NC)C(=O)O; NMeD = CN[C@@H](CC(=O)O)C(=O)O; NMeL = CN[C@@H](CC(C)C)C(=O)O; hLeu = CC(C)CC[C@H](N)C(=O)O; NMeNva = CCC[C@H](NC)C(=O)O; NMeV = CN[C@H](C(=O)O)C(C)C; d(β3hA) = C[C@@H](N)CC(=O)O; NMeS = CN[C@@H](CO)C(=O)O; Iva = CC[C@](C)(N)C(=O)O; NMeA = CN[C@@H](C)C(=O)O; NMeAib = CNC(C)(C)C(=O)O; Nle = CCCC[C@H](N)C(=O)O; Piperidide = C1CCN(*)CC1; Pyrrolidide = C1CCN(*)C1; Ac5c = NC1(C(=O)O)CCCC1; Aze = O=C(O)[C@@H]1CCN1; CH2CMe2OH = CC(C)(O)C*; Aib = CC(C)(N)C(=O)O; Isopentyl = CC(C)CC*; Sar = CNCC(=O)O

What follows are compounds tested on Human pancreatic cancer cell line AsPC-1 (G12D mutation Kras) (assay: AsPC-1 cell growth inhibition (AsPC-1 CGI)). Settings: read-out: AsPC-1 cell growth inhibition, 50% growth inhibitory concentration (IC50 value); 96 hours, CellTiter-Glo, values classified in ranges.
Assay type: cell-based
Description: Test compounds were serially dilated with dimethyl sulfoxide, and 200 nL was then dispensed to a U-bottom 96-well plate using Labcyte Echo. […] The cell suspension was dispensed to a. plate containing a test compound at 100 μL per well and incubated at 37° C. in a 5% carbon dioxide gas incubator. 96 hours later, 80 μL of CellTiter-Glo (Promega) was added to each well and fluorescence was measured.

SMILES	IC50 [nM]
CC[C@H](C)[C@@H]1NC(=O)[C@H](CC(C)C)N(C)C(=O)C[C@@H](C(=O)N2CCCCC2)N(C)C(=O)[C@H](CC(C)C)N(C)C(=O)C(C)(C)NC(=O)[C@H](COCC(C)(C)O)N(C)C(=O)[C@H](CCc2ccc(C(F)(F)F)c(F)c2)NC(=O)CN(C)C(=O)[C@H](COCCC(C)C)N(C)C(=O)CN(C)C(=O)CN(C)C1=O [Compound 1532] ([NMeL]I[Sar][Sar][NMeS](Isopentyl)[Sar][hPhe(3-F,4-CF3)][NMeS](CH2CMe2OH)[Aib][NMeL][NMeD]-Piperidide; lactam N-11)	> 500
CC[C@H](C)[C@@H]1NC(=O)[C@H](CC(C)C)N(C)C(=O)C[C@@H](C(=O)N2C3CCC2COC3)N(C)C(=O)[C@H]([C@@H](C)CC)N(C)C(=O)C2(CCCC2)NC(=O)[C@@H]2CCCN2C(=O)[C@H](CCc2ccc(C(F)(F)F)c(Cl)c2)NC(=O)CN(C)C(=O)[C@H](Cc2ccc(C(F)(F)F)cc2)N(C)C(=O)[C@@H]2CCN2C(=O)[C@H](C)N(C)C1=O [Compound 545] ([NMeL]I[NMeA][Aze][NMePhe(4-CF3)][Sar][hPhe(3-Cl-4-CF3)]P[Ac5c][NMeI][NMeD]-{3Oxa8azabicyclo(3.2.1)octane}; lactam N-11)	≤ 20
CCC[C@H]1C(=O)N[C@@H]([C@@H](C)CC)C(=O)N(C)[C@@H](C)C(=O)N2CC[C@H]2C(=O)N(C)[C@@H](CC2CCCCC2)C(=O)N(C)CC(=O)N[C@@H](CCc2ccc(C(F)(F)F)c(Cl)c2)C(=O)N2CCC[C@H]2C(=O)NC2(CCCC2)C(=O)N(C)[C@@H](C2CCCC2)C(=O)N(C)[C@H](C(=O)N2CCCCC2)CC(=O)N1C [Compound 391] ([NMeNva]I[NMeA][Aze][NMeCha][Sar][hPhe(3-Cl-4-CF3)]P[Ac5c][NMeGly(cPent)][NMeD]-Piperidide; lactam N-11)	≤ 20
CC[C@H](C)[C@@H]1NC(=O)[C@H](CC(C)C)N(C)C(=O)C[C@@H](C)N(C)C(=O)[C@H](C2CCCCC2)N(C)C(=O)C2(CCCC2)NC(=O)[C@@H]2CCCN2C(=O)[C@H](CCc2ccc(C(F)(F)F)c(Cl)c2)NC(=O)CN(C)C(=O)[C@H](CC2CCCCC2)N(C)C(=O)[C@@H]2CCN2C(=O)[C@H](C)N(C)C1=O [Compound 1813] (cyclo([Ac5c][NMeChg][NMedβ3hAla][NMeL]I[NMeA][Aze][NMeCha][Sar][hPhe(3-Cl-4-CF3)]P))	> 500
CC[C@H](C)[C@@H]1NC(=O)[C@H](CC(C)C)N(C)C(=O)C[C@@H](C(=O)N(C)C)N(C)C(=O)[C@H](C2CCCC2)N(C)C(=O)C2(CCCC2)NC(=O)[C@@H]2CCCN2C(=O)[C@H](CCc2ccc(C(F)(F)F)c(Cl)c2)NC(=O)CN(C)C(=O)[C@H](Cc2ccc(C)cc2)N(C)C(=O)[C@@H]2CCN2C(=O)[C@H](C)NC1=O [Compound 363] ([NMeL]IA[Aze][NMePhe(4-Me)][Sar][hPhe(3-Cl-4-CF3)]P[Ac5c][NMeGly(cPent)][NMeD]-NMe2; lactam N-11)	≤ 20
CCO[C@@H]1C[C@H]2C(=O)NC3(CCCC3)C(=O)N(C)[C@@H](C3CCCCC3)C(=O)N(C)[C@H](C(=O)N3CCCC3)CC(=O)N(C)[C@@H](CC(F)(F)F)C(=O)N[C@@H]([C@@H](C)CC)C(=O)N(C)CC(=O)N(C)CC(=O)N(C)[C@@H](Cc3ccc(C(F)(F)F)cc3)C(=O)N(C)CC(=O)N[C@@H](CCc3ccc(C(F)(F)F)c(Cl)c3)C(=O)N2C1 [Compound 1139] ([NMeAbu(4,4,4-F3)]I[Sar][Sar][NMePhe(4-CF3)][Sar][hPhe(3-Cl-4-CF3)][Hyp](Et)[Ac5c][NMeChg][NMeD]-Pyrrolidide; lactam N-11)	≤ 20
CC[C@H](C)[C@@H]1NC(=O)[C@H](CC(C)C)N(C)C(=O)C[C@@H](C)NC(=O)[C@H](C(C)C)N(C)C(=O)[C@](C)(CC)NC(=O)[C@@H]2CCCN2C(=O)[C@H](CCc2ccc(C(F)(F)F)c(Cl)c2)NC(=O)CN(C)C(=O)[C@H](CC2CCCCC2)N(C)C(=O)CN(C)C(=O)CN(C)C1=O [Compound 149] (cyclo(I[Sar][Sar][NMeCha][Sar][hPhe(3-Cl-4-CF3)]P[Iva][NMeV][d(β3hA)][NMeL]))	> 500
CC[C@H](C)[C@@H]1NC(=O)[C@H](CC(C)C)N(C)C(=O)C[C@@H](C(=O)N2CCCC2)NC(=O)[C@H](C(C)C)N(C)C(=O)C2(CCCC2)NC(=O)[C@@H]2CCCN2C(=O)[C@H](CCc2ccc(C(F)(F)F)c(Cl)c2)NC(=O)CN(C)C(=O)[C@H](CC2CCCCC2)N(C)C(=O)CN(C)C(=O)CN(C)C1=O [Compound 508] ([NMeL]I[Sar][Sar][NMeCha][Sar][hPhe(3-Cl-4-CF3)]P[Ac5c][NMeV]D-Pyrrolidide; lactam N-11)	> 500
CC[C@H](C)[C@@H]1NC(=O)[C@H](CC(C)C)N(C)C(=O)C[C@@H](C(=O)N2CCCCC2)N(C)C(=O)[C@H](C2CCCCC2)N(C)C(=O)C2(CCCC2)NC(=O)[C@H](Cc2ccccc2)N(C)C(=O)[C@H](CCc2ccc(C(F)(F)F)c(Cl)c2)NC(=O)CN(C)C(=O)[C@H](CC2CCCCC2)N(C)C(=O)[C@@H]2CCN2C(=O)CN(C)C1=O [Compound 527] ([NMeL]I[Sar][Aze][NMeCha][Sar][hPhe(3-Cl-4-CF3)][NMeF][Ac5c][NMeChg][NMeD]-Piperidide; lactam N-11)	> 500
CCCC[C@@H]1NC(=O)[C@H](Cc2cccc(I)c2)NC(=O)CN(C)C(=O)[C@H](Cc2ccc(C(F)(F)F)cc2)N(C)C(=O)CN(C)C(=O)CN(C)C(=O)[C@H]([C@@H](C)CC)NC(=O)[C@H](CC(C)C)N(C)C(=O)C[C@@H](C(=O)N2CCCCC2)N(C)C(=O)[C@H](CCC(C)C)NC(=O)C(C)(C)N(C)C1=O [Compound 1433] ([NMeL]I[Sar][Sar][NMePhe(4-CF3)][Sar][Phe(3-I)][Nle][NMeAib][hLeu][NMeD]-Piperidide; lactam N-11)	> 500
CC[C@H](C)[C@@H]1NC(=O)[C@H](CC(C)C)N(C)C(=O)C[C@@H](C)NC(=O)[C@H](C)N(C)C(=O)C2(CCCC2)NC(=O)[C@@H]2CCCN2C(=O)[C@H](CCc2ccc(C(F)(F)F)c(Cl)c2)NC(=O)CN(C)C(=O)[C@H](Cc2ccc(C)cc2)N(C)C(=O)[C@@H]2CCN2C(=O)[C@H](C)N(C)C1=O [Compound 1239] (cyclo([Ac5c][NMeA][d(β3hA)][NMeL]I[NMeA][Aze][NMePhe(4-Me)][Sar][hPhe(3-Cl-4-CF3)]P))	> 500
CC[C@H](C)[C@@H]1NC(=O)[C@H](CC(C)C)N(C)C(=O)C[C@@H](C(=O)N2CCCCC2)N(C)C(=O)[C@H](C(C)C)N(C)C(=O)C2(CCCC2)NC(=O)[C@@H]2CCCN2C(=O)[C@H](CCc2ccc(C(F)(F)F)c(Cl)c2)NC(=O)CN(C)C(=O)[C@H](Cc2ccc(C#N)cc2)N(C)C(=O)CN(C)C(=O)CN(C)C1=O [Compound 867] ([NMeL]I[Sar][Sar][NMePhe(4-CN)][Sar][hPhe(3-Cl-4-CF3)]P[Ac5c][NMeV][NMeD]-Piperidide; lactam N-11)	> 500
CC[C@H](C)[C@@H]1NC(=O)[C@H](CC(C)C)N(C)C(=O)C[C@@H](C)NC(=O)[C@H](C(C)C)N(C)C(=O)C2(CCCC2)NC(=O)[C@@H]2CCCN2C(=O)[C@H](CCc2ccc(C(F)(F)F)c(Cl)c2)NC(=O)CN(C)C(=O)[C@H](Cc2ccccc2C)N(C)C(=O)CN(C)C(=O)CN(C)C1=O [Compound 1614] (cyclo([Ac5c][NMeV][d(β3hA)][NMeL]I[Sar][Sar][NMePhe(2-Me)][Sar][hPhe(3-Cl-4-CF3)]P))	> 500
